From PubChem BioAssay (NCI)
Values joined by “and” are separate entries in the source; they are usually repeats but may differ in a detail not shown here. Identical values can stand only once.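 Dose response: 5 concentrations. Exposure: 48 h. Format: 96-well plates. Endpoint: linear interpolation; highest concentration if not reached. The concentration for 50% growth inhibition is given as GI50. TGI is the concentration that stops growth completely.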

Assays:
Experiment in all cases: NCI tumour cell line growth inhibition, 48 h
DU-145 prostate = system: DU-145 prostate
RXF 393 renal = system: RXF 393 renal
A549 NSCLC = system: A549 NSCLC
COLO 205 colon = system: COLO 205 colon
SF-539 CNS = system: SF-539 CNS
MCF7 breast = system: MCF7 breast
UACC-257 melanoma = system: UACC-257 melanoma
K-562 leukemia = system: K-562 leukemia
OVCAR-8 ovarian = system: OVCAR-8 ovarian
NCI-H460 lung = system: NCI-H460 lung

Row | SMILES | TGI (DU-145 prostate) [µM] | TGI (RXF 393 renal) | TGI (A549 NSCLC) [µM] | TGI (COLO 205 colon) [µM] | TGI (SF-539 CNS) [µM] | TGI (MCF7 breast) [µM] | TGI (UACC-257 melanoma) [µM] | TGI (K-562 leukemia) | TGI (OVCAR-8 ovarian) [µM] | TGI (NCI-H460 lung) [µM] | GI50 (DU-145 prostate) [µM] | GI50 (RXF 393 renal) | GI50 (A549 NSCLC) [µM] | GI50 (COLO 205 colon) [µM] | GI50 (SF-539 CNS) | GI50 (MCF7 breast) | GI50 (UACC-257 melanoma) [µM] | GI50 (K-562 leukemia) | GI50 (OVCAR-8 ovarian) [µM] | GI50 (NCI-H460 lung) [µM]
1 | O=C(O)c1ccccc1NCn1c(=S)sc2ccccc21 | > 100 | > 100 µM | > 100 | 56.7 | 48.9 | 51.7 | > 100 | > 100 µM | > 100 | 48.5 | – | – | – | – | – | – | – | – | – | –
2 | O=c1cccc(Cl)[nH]1 | > 100 | > 100 µM | > 100 | > 100 | > 100 | > 100 | > 100 | > 100 µM | > 100 | > 100 | – | – | – | – | – | – | – | – | – | –
3 | CCOC(=O)[C@@H]1CSC(CC)=C(C(=O)O)N1 | > 100 | > 100 µM | > 100 | > 100 | > 100 | > 100 | > 100 | > 100 µM | > 100 | > 100 | > 100 | > 100 µM | > 100 | > 100 | > 100 µM | > 100 µM | > 100 | > 100 µM | > 100 | > 100
4 | Cc1nc2ccccc2c(=O)n1/N=C(\N=Nc1cc(Cl)ccc1Cl)c1ccccc1 | > 100 | > 100 µM | > 100 | > 100 | > 100 | > 100 | 66 | > 100 µM | > 100 | > 100 | – | – | – | – | – | – | – | – | – | –
5 | OCC(O)C(O)C(O)C(O)c1nnc2c(-c3ccccc3)nc3ccccc3n12 (centres undefined) | > 100 | > 100 µM | > 100 | > 100 | > 100 | > 100 | > 100 | > 100 µM | > 100 | > 100 | > 100 | 56.8 µM | > 100 | 74 | > 100 µM | 43.5 µM | > 100 | 78.3 µM | 53.5 | > 100
6 | CC(O)[C@H](NC(=O)N[C@@H](CC(N)=O)c1nc(N2CCNCC2)no1)C(=O)O (some centres undefined) | > 100 | > 100 µM | > 100 | > 100 | > 100 | > 100 | > 100 | > 100 µM | > 100 | > 100 | > 100 | > 100 µM | > 100 | > 100 | > 100 µM | > 100 µM | > 100 | > 100 µM | > 100 | > 100
7 | C=CC(=O)Nc1cc2c(Nc3ccc(F)c(Cl)c3)ncnc2cc1C#CC(C)(C)N1CCN(C)CC1 | 4.86 | 2.15 µM | – | 5.43 | 2.99 | 3.17 | 5.56 | 6.59 µM | 5.35 | 6.69 | 1.11 | 0.837 µM | 2.64 | 2.09 | 1.48 µM | 0.995 µM | 3.96 | 1.05 µM | 1.85 | 2.91
8 | CC(=O)OCC1OC(n2c3c(cc(C#N)c2=S)CCCC3)C(OC(C)=O)C(OC(C)=O)C1OC(C)=O (centres undefined) | > 100 | > 100 µM and 63.7 µM | > 100 | > 100 | > 100 | > 100 | > 100 | 68 µM and > 100 µM | > 100 | > 100 | – | > 100 µM and 20.4 µM | – | – | > 100 µM and 48.1 µM | 48.4 µM and > 100 µM | – | 24.1 µM and > 100 µM | – | –
9 | C[As](C)SC1OCC(O)C(O)C1O (centres undefined) | 0.824 | 3.39 µM | > 33.7 | 3.37 | 0.595 | 1.29 | 7.22 | 0.378 µM | 2.82 | 7.52 | 0.122 | 0.321 µM | 1.63 | 0.747 | 0.111 µM | 0.173 µM | 1.43 | 0.0495 µM | 0.284 | 1.1
10 | CC1(C)C2CCC13C(=O)C1OC3(C2)C2C(=O)c3c(ccc4c3ccc3ccccc34)C(=O)C12 (centres undefined) | > 100 | > 100 µM | > 100 | > 100 | > 100 | > 75.9 | > 70.5 | 82.1 µM | > 100 | > 100 | > 100 | 84 µM | > 60.1 | > 54 | > 64.4 µM | 31.6 µM | > 29.2 | 1.12 µM | > 61.1 | 57.3
11 | CC1OC(OC2C(O)C(O)C(O)C(O)C2O)C(N)CC1N=C(N)C(=O)O (centres undefined) | > 100 | > 100 µM | > 100 | > 100 | > 100 | > 100 | > 100 | > 100 µM | > 100 | > 100 | – | – | – | – | – | – | – | – | – | –
12 | CC(C)OP(=O)(O)c1ncc(-c2ccc(C(F)(F)F)cc2)c(NC2CCCCCC2)n1 | > 100 | > 100 µM | > 100 | > 100 | > 100 | > 100 | > 100 | > 100 µM | > 100 | > 100 | > 100 | > 100 µM | > 100 | > 100 | > 100 µM | > 100 µM | > 100 | 55 µM | > 100 | > 100
13 | COc1cc(/C=C2\SC(N3CCCCC3)=NC2=O)ccc1OCCCCCCOc1ccc(/C=C2\SC(N3CCCCC3)=NC2=O)cc1OC | 17.6 | 16.9 µM | 30.9 | > 100 | 24.2 | 44.9 | 47.6 | – | 31.1 | 23.8 | 5.26 | 4.94 µM | 11.8 | 19.9 | 6.95 µM | 15.1 µM | 17.4 | – | 4.95 | 6.84
14 | CCOc1ccc2cc(-c3nn(CC4CCNCC4)c4ncnc(N)c34)ccc2c1 | 55.6 | 17.1 µM | 46.2 | 27 | 26.9 | 24.8 | 31.1 | 17.1 µM | – | 32.8 | 19.1 | 3.96 µM | 20.3 | 12.2 | 13.9 µM | 11.2 µM | 16.8 | 4.69 µM | – | 16.8
